What all share (type): functional
Test [1] relates to Helicoverpa armigera. Description: Insecticidal activity against Helicoverpa armigera adults emerged from compound-treated third-instar larval stage assessed as decrease in longevity rate at LC30 concentration. Set-up: scale not given: the % may be the effect or the level left.
Test [2] relates to Helicoverpa armigera. Description: Insecticidal activity against Helicoverpa armigera adults emerged from compound-treated third-instar larval stage assessed as decrease in fecundity rate at LC30 concentration. Set-up: scale not given: the % may be the effect or the level left.
The subject of test [3] is Helicoverpa armigera. Description: Insecticidal activity against Helicoverpa armigera pupae assessed as increase in pupal development time at LC30 concentration treated during third-instar larval stage for 24 hr.
Test [4] relates to Helicoverpa armigera. Description: Insecticidal activity against Helicoverpa armigera assessed as pupal weight at LC30 concentration treated during third-instar larval stage for 24 hr (reference value: 311 +/-9 mg).
For test [5], the system named is Helicoverpa armigera. The experiment in a line: Insecticidal activity against third-instar larval stage of Helicoverpa armigera fed with artificial diet containing compound assessed as increase in larval development time at LC30 concentration incubated for 24 hr.
For test [6], the system named is Helicoverpa armigera. The experiment in a line: Insecticidal activity against Helicoverpa armigera fed with artificial diet containing compound assessed as mortality at LC30 concentration measured at 24 hr intervals beginning at 24 hr after initial drug exposure.
Test [7] deals with Helicoverpa armigera. Description: Insecticidal activity against third-instar larval stage of Helicoverpa armigera fed with artificial diet containing compound assessed as mortality at LC30 concentration measured at 24 hr intervals beginning at 24 hr after initial drug exposure.
Test [8] relates to Helicoverpa armigera. Description: Insecticidal activity against third-instar larval stage of Helicoverpa armigera fed with artificial diet containing compound assessed as mortality measured at 24 hr intervals beginning at 24 hr after initial drug exposure. The following applies: for LC50: Helicoverpa armigera, Instar larval stage, 24 h.

≈ marks a conversion by molar mass, not a printed value.

As a reminder, the mortality is the share of the test organisms that died. As a reminder, the LC50 is the concentration that kills 50% of the test population. For the molecule `COc1cccc(C(=O)NN(C(=O)c2cc(C)cc(C)c2)C(C)(C)C)c1C` [METHOXYFENOZIDE], the Activity in test [1] is reported as 27.5%; in test [2] it was 35%; in test [4] it was 253 mg. In addition, the Time in test [3] stood at 2.3 days; in test [5], 2.1 days. Also, the mortality in test [6] and in test [7] was 32% throughout. Besides, the LC30 in test [8] is 148 ppm. The LC90 in test [8] worked out at 560 ppm. Moreover, in test [8], the LC50 was 218 µg/mL (≈ 592 µM).

`CS/C(C)=N\OC(=O)N(C)SN(C)C(=O)O/N=C(\C)SC` [THIODICARB]: the results for the Activity in test [1], in test [2] and in test [4] were 23%, 30% and 294 mg, respectively. Further, the Time in test [3] was 0.5 days; in test [5], 5.3 days. Further, the mortality in test [6] and in test [7] was 20% throughout. For the same molecule, in test [8], the LC30 turned out to be 550 ppm. In test [8], the LC90 worked out at 1987 ppm. In test [8], the LC50 was 798 µg/mL (≈ 2250 µM).

Values taken from ChEMBL document CHEMBL3046391, “Acute toxicity and sublethal effects of methoxyfenozide and thiodicarb on survival, development and reproduction of Helicoverpa armigera (Lepidoptera: Noctuidae)” (2013).
